Test: Liposome alanine efflux coupled with enzymatic assays
Conditions: alanine efflux after one hour of exposure; alanine-loaded DPPC/cholesterol (3:1) liposomes; carrier added in DMSO; control with no carrier 0.7
Protocol: Two sets of tests were undertaken to determine the viability of such aminophosphonate compounds as drug carriers in liposome-based delivery systems. The first evaluated liposome efflux coupled with enzymatic assays. In such an experiment, unilamellar liposomes loaded with 300 mM of alanine (an amino acid) were prepared from dipalmitoyl phosphatidyl choline (DPPC) and cholesterol (3:1 molar ratio) (in accordance with Torchilin, V. et al., Liposomes 2003, Second Edition, Oxford Press). Several samples of alanine-loaded liposomes were then loaded further with identical amounts of the different aminophosphonate carriers from above (with DMSO as a solvent) thereby producing different samples with different carriers but with same concentrations. The liposomes were then measured for alanine efflux after one hour of exposure as the conversion of alanine to pyruvate, catalyzed by Glutamic-Pyruvic Transmaminase enzyme, and further to lactate, catalyzed by the enzyme Lactate Dehydrogenase, accompanied by the oxidation of nicotinamide cofactor NADH to NAD^+ (as monitored by UV spectroscopy). The results are tabulated below (with a control of no carrier): […]
For COP(=O)(OC)C(C)(C)Nc1ccccc1 [Example 6], the “Alanine Flux” value was 7.8 nmol/h × m^2. In the case of CCCCOP(=O)(OCCCC)C(C)(C)NCc1ccccc1 [Example 2], the “Alanine Flux” value is reported as 3.1 nmol/h × m^2. For CCCCC(CC)COP(=O)(OCC(CC)CCCC)C(C)(C)NCc1ccccc1 (stereo not shown) [Example 3], the “Alanine Flux” value was 4.3 nmol/h × m^2. With COP(=O)(OC)C(C)(C)NCc1ccccc1 [Example 1] the “Alanine Flux” value was 4.4 nmol/h × m^2. For CCCCOP(=O)(OCCCC)C1(NCc2ccccc2)CCCCC1 [Example 5], the “Alanine Flux” value was 4.4 nmol/h × m^2. With CCCCOP(=O)(OCCCC)C1(Nc2ccccc2)CCCCC1 [Example 7] the “Alanine Flux” value was 4.4 nmol/h × m^2. In the case of COP(=O)(OC)C1(NCc2ccccc2)CCCCC1 [Example 4], the “Alanine Flux” value is reported as 7.2 nmol/h × m^2.

— patent US20100178326A1, “AMINOPHOSPHONATE CARRIERS FOR LIPOSOME-BASED DRUG RELEASE SYSTEMS” (priority 2008, published 2010)
